Test results taken from ChEMBL document CHEMBL1201862, “PubChem BioAssay data set” (2004).
Activity calls are given as the source filed them.

Columns and labels:
[1] = biological target: Induced myeloid leukemia cell differentiation protein Mcl-1 (Homo sapiens, UniProt Q07820); format: functional
A-375 = test: MITF: Counter assay: A375 proliferation Measured in Cell-Based System Using Plate Reader - 2084-03_Inhibitor_Dose_DryPowder_Activity. [Related pubchem assays (depositor defined):AID488944]; format: functional; conditions: Homo sapiens
INS1 = test: beta cell apoptosis inhibitors, cytokine rescue, dose response, luminescence, retest (AID 449756); format: functional, cell-based; conditions: Rattus norvegicus;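 further: cell death triggered by IL-1 beta plus TNF-alpha plus IFN-gamma mixture; protective hits raise ATP signal compared with cytokine alone wells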
[2] = biological target: Glucose-6-phosphate 1-dehydrogenase (Homo sapiens, UniProt P11413); test: human G6PD enzyme inhibitors, dose response, selectivity assay for P. falciparum G6PD inhibitor project, biochemical, fluorescence (AID 504792); format: functional
[3] = biological target: T1, Endoribonuclease toxin MazF (Escherichia coli K-12, UniProt P0AE70); test: MazF toxin RNase activators, dose response, biochemical, fluorescence, single-stranded RNA substrate, uHTS hits (AID 588481); format: functional
T1 sequence (P0AE70 whole entry): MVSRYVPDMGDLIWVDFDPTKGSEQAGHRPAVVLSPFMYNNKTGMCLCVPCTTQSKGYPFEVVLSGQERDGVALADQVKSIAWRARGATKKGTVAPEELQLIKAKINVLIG

Cytochrome P450 2C9 = Cytochrome P450 2C9 (Homo sapiens, UniProt P11712)
[4] = biological target: T2, Sentrin-specific protease 7 (Homo sapiens, UniProt Q9BQF6); format: functional;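 further: Luminescence-based dose-response confirmation of ultra-high-throughput screening hits, measuring inhibition of SENP7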
T2 sequence (Q9BQF6 whole entry): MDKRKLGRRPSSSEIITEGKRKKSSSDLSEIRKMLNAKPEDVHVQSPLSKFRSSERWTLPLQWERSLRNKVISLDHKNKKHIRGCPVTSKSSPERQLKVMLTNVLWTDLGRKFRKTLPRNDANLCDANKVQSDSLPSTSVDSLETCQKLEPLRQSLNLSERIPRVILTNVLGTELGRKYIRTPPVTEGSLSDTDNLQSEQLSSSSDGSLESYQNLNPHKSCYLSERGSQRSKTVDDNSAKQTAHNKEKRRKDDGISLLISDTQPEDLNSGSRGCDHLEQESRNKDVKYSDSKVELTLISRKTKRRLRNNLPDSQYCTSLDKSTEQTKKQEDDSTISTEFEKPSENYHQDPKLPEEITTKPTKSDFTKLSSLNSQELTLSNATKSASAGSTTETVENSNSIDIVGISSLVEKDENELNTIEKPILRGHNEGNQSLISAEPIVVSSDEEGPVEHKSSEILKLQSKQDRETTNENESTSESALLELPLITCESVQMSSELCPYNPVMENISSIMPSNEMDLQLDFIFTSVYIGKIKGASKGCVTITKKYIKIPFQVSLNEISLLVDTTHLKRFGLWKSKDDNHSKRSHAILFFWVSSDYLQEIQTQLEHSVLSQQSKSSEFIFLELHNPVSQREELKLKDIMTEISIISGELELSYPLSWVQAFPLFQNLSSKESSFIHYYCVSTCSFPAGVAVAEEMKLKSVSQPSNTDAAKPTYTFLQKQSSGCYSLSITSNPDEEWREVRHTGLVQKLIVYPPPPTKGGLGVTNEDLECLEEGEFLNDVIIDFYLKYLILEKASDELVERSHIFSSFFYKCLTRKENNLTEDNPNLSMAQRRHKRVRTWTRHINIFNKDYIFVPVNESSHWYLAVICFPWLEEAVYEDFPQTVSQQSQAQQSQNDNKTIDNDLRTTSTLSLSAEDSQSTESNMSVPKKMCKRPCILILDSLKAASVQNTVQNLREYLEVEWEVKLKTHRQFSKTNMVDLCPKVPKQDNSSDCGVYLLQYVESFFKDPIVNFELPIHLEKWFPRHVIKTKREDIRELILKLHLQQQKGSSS

[5] = biological target: T3, Sentrin-specific protease 8 (Homo sapiens, UniProt Q96LD8); format: functional;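 further: luminescence read-out of SENP8 inhibition, dose-response confirmation following an ultra-high-throughput screen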
T3 sequence (Q96LD8 whole entry): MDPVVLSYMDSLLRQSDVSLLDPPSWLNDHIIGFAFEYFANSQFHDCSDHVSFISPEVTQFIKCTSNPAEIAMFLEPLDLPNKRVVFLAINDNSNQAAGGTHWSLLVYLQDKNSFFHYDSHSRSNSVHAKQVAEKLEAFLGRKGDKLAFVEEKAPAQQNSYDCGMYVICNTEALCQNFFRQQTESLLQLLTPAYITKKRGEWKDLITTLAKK

[6] = biological target: T4, Sentrin-specific protease 6 (Homo sapiens, UniProt Q9GZR1); format: functional;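 further: Luminescence-based dose-response confirmatory assay of SENP6 inhibition, following up an ultra-high-throughput screen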
T4 sequence (Q9GZR1 whole entry): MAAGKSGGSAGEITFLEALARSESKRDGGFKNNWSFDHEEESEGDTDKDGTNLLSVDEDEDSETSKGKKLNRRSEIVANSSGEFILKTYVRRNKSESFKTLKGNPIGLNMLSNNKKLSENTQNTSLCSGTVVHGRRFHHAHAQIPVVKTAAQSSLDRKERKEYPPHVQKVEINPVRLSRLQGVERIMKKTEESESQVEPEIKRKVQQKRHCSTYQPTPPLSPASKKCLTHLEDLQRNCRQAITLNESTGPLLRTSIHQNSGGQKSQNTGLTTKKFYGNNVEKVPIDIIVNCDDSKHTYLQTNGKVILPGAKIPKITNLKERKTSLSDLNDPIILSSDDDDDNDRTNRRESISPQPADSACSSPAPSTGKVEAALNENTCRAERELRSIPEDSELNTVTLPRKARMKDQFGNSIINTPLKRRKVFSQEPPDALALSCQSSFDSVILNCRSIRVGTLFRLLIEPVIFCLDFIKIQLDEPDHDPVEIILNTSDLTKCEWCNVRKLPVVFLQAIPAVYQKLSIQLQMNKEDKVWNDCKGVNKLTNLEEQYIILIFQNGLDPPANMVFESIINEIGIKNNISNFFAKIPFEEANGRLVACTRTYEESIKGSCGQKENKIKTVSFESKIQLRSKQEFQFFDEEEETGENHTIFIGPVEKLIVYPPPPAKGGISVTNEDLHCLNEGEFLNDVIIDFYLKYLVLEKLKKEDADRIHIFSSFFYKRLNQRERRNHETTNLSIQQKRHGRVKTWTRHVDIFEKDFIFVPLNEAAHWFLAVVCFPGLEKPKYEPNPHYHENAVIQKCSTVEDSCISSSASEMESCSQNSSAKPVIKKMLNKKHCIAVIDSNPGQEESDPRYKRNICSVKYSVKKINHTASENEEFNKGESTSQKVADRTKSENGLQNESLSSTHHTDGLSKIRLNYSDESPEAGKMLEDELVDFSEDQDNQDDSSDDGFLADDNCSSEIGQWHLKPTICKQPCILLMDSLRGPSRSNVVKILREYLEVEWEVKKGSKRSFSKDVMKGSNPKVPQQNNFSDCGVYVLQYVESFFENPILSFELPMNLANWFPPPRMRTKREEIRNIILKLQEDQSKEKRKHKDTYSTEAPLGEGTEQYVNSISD

Chain of Cytochrome P450 2C9 (P11712 whole entry): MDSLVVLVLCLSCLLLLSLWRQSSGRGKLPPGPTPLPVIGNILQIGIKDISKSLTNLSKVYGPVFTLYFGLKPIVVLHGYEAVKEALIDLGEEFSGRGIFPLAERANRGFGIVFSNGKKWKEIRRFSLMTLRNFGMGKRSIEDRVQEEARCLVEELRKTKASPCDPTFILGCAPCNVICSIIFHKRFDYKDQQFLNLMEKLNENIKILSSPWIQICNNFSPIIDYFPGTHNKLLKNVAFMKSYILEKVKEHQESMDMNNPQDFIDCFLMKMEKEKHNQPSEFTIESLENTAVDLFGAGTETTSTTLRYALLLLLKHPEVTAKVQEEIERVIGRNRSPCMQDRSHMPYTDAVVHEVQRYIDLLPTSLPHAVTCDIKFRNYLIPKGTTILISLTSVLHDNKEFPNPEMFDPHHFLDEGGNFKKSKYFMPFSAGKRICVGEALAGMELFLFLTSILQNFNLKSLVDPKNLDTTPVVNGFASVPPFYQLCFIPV
Chain of Induced myeloid leukemia cell differentiation protein Mcl-1 (Q07820 whole entry): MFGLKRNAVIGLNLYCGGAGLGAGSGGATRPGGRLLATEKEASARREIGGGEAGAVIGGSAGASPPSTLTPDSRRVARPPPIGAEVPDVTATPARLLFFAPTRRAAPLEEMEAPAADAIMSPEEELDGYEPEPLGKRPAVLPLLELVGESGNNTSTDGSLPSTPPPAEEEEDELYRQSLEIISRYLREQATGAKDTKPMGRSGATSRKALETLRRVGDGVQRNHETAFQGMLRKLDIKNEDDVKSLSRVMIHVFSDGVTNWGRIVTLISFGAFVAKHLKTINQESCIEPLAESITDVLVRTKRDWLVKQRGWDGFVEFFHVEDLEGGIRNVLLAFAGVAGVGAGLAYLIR
Chain of Glucose-6-phosphate 1-dehydrogenase (P11413 whole entry): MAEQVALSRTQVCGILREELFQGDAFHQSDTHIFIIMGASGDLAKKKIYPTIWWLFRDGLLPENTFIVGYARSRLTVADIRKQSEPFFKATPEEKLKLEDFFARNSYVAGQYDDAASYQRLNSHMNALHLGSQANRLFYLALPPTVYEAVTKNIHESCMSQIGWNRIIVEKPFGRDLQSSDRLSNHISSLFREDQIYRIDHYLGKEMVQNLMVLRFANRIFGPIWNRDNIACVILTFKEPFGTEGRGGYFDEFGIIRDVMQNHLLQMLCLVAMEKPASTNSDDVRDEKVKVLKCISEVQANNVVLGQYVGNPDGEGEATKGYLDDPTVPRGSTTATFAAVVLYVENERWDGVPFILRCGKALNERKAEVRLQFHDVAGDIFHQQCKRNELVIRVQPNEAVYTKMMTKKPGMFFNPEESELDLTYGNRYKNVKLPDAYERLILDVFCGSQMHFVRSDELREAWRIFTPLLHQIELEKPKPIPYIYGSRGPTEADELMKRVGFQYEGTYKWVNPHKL

Question: What does the source list for `Cc1cccc(NC2=C(NC(=O)c3ccccc3)C(=O)c3ccccc3C2=O)c1`?
Answer: IC50 [1]: 2.86 µM (active); AC50 (A-375): 34 µM (active); AC50 (INS1): 7.52 µM (active); IC50 [2]: > 80 µM (inactive)

Question: `Cc1[nH][nH]c(=O)c1C(c1c(C)[nH][nH]c1=O)c1cn(Cc2ccccc2Cl)c2ccccc12` was tested. Which EC50 [3] did it give?
Answer: Its EC50 is > 99 µM (inactive).

Question: Which AC50 (Cytochrome P450 2C9) does the source give for `CC(C)=CCC1=C(OCC(=O)O)C(=O)c2ccccc2C1=O` here?
Answer: The AC50 was 3.98 µM (inconclusive).

Question: What about the IC50 [4] of the same compound?
Answer: Its IC50 is 3.97 µM (active).

Question: And the IC50 [5]?
Answer: The IC50 was 3.91 µM (active).

Question: And the IC50 [6]?
Answer: The IC50 was 2.53 µM (active).
